± gives the expanded uncertainty stated by the source.
Legend:
[1] = relative permittivity at zero frequency (dimensionless); xn = mol fraction of the nth substance listed; conditions: 101 kPa, Liquid, impedance/gain phase analyzer, x2 = 0
[2] = relative permittivity at zero frequency (dimensionless); conditions: 101 kPa, Liquid, impedance/gain phase analyzer
[3] = Crystal; Derived from relative static permittivity measurements of the liquid and solid states

O [water] + C[S+](C)[O-]
[1]
Conditions | relative permittivity at zero frequency
273.15 K | 87 ± 0.1
275.15 K | 86.36 ± 0.1
277.15 K | 85.67 ± 0.1
279.15 K | 84.84 ± 0.1
281.15 K | 84.25 ± 0.1
283.15 K | 83.37 ± 0.1
285.15 K | 82.73 ± 0.1
287.15 K | 82.02 ± 0.1
289.15 K | 81.33 ± 0.1
291.15 K | 80.65 ± 0.1
293.15 K | 79.98 ± 0.1
295.15 K | 79.32 ± 0.1
297.15 K | 78.42 ± 0.1
299.15 K | 77.85 ± 0.1
301.15 K | 77.29 ± 0.1
303.15 K | 76.61 ± 0.1
305.15 K | 75.95 ± 0.1
307.15 K | 75.3 ± 0.1
309.15 K | 74.65 ± 0.1
311.15 K | 73.97 ± 0.1
313.15 K | 73.29 ± 0.1
315.15 K | 72.68 ± 0.1
317.15 K | 72.09 ± 0.1
319.15 K | 71.44 ± 0.1
321.15 K | 70.76 ± 0.1
323.15 K | 70.14 ± 0.1
325.15 K | 69.54 ± 0.1
327.15 K | 68.94 ± 0.1
329.15 K | 68.3 ± 0.1
331.15 K | 67.68 ± 0.1
333.15 K | 67.07 ± 0.1

O [water]
[2]
Conditions | relative permittivity at zero frequency
273.15 K | 87 ± 0.1
275.15 K | 86.36 ± 0.1
277.15 K | 85.67 ± 0.1
279.15 K | 84.84 ± 0.1
281.15 K | 84.25 ± 0.1
283.15 K | 83.37 ± 0.1
285.15 K | 82.73 ± 0.1
287.15 K | 82.02 ± 0.1
289.15 K | 81.33 ± 0.1
291.15 K | 80.65 ± 0.1
293.15 K | 79.98 ± 0.1
295.15 K | 79.32 ± 0.1
297.15 K | 78.42 ± 0.1
299.15 K | 77.85 ± 0.1
301.15 K | 77.29 ± 0.1
303.15 K | 76.61 ± 0.1
305.15 K | 75.95 ± 0.1
307.15 K | 75.3 ± 0.1
309.15 K | 74.65 ± 0.1
311.15 K | 73.97 ± 0.1
313.15 K | 73.29 ± 0.1
315.15 K | 72.68 ± 0.1
317.15 K | 72.09 ± 0.1
319.15 K | 71.44 ± 0.1
321.15 K | 70.76 ± 0.1
323.15 K | 70.14 ± 0.1
325.15 K | 69.54 ± 0.1
327.15 K | 68.94 ± 0.1
329.15 K | 68.3 ± 0.1
331.15 K | 67.68 ± 0.1
333.15 K | 67.07 ± 0.1

Conditions | Normal melting temperature [°C]
[3] | 0.1 ± 1

C[S+](C)[O-] [dimethyl sulfoxide]
[2]
Conditions | relative permittivity at zero frequency
291.15 K | 47.15 ± 0.1
293.15 K | 47.09 ± 0.1
295.15 K | 46.84 ± 0.1
297.15 K | 46.64 ± 0.1
299.15 K | 46.39 ± 0.1
301.15 K | 46.18 ± 0.1
303.15 K | 45.94 ± 0.1
305.15 K | 45.63 ± 0.1
307.15 K | 45.39 ± 0.1
309.15 K | 45.14 ± 0.1
311.15 K | 44.88 ± 0.1
313.15 K | 44.64 ± 0.1
315.15 K | 44.34 ± 0.1
317.15 K | 44.11 ± 0.1
319.15 K | 43.87 ± 0.1
321.15 K | 43.58 ± 0.1
323.15 K | 43.31 ± 0.1
325.15 K | 43.07 ± 0.1
327.15 K | 42.78 ± 0.1
329.15 K | 42.56 ± 0.1
331.15 K | 42.27 ± 0.1
333.15 K | 42 ± 0.1

Conditions | Normal melting temperature [°C]
[3] | 18.1 ± 1

— the NIST ThermoML archive (doi:10.1021/je400149j)
